Laboratory results from the NIST ThermoML archive (doi:10.1021/je060371g).

Details: Fluid (supercritical or subcritical phases), Buoyancy - hydrostatic balance with magnetic suspension - one sinker

FC(F)Cl [chlorodifluoromethane]
specific volume [m3/kg]
Details | 298.2 K | 323.2 K | 348.2 K | 373.2 K
10000 kPa | 0.000815 | 0.00087 | 0.000955 | 0.001091
20000 kPa | 0.000787 | 0.000831 | 0.000887 | 0.000967
30000 kPa | 0.000771 | 0.00081 | 0.000852 | 0.000907
40000 kPa | 0.000755 | 0.00079 | 0.000828 | 0.000875
50000 kPa | 0.000743 | 0.000773 | 0.000807 | 0.000842
75000 kPa | 0.000717 | 0.000743 | 0.000768 | 0.000797
100000 kPa | 0.000698 | 0.000715 | 0.000742 | 0.000765
125000 kPa | 0.000682 | 0.000699 | 0.000719 | 0.000741
150000 kPa | 0.00067 | 0.000683 | 0.000701 | 0.000722
175000 kPa | 0.000657 | 0.00067 | 0.000686 | 0.000705
200000 kPa | 0.000646 | 0.00066 | 0.000674 | 0.000689
225000 kPa | 0.000638 | 0.000651 | 0.000663 | 0.000677
250000 kPa | 0.00063 | 0.000643 | 0.000655 | 0.000667
275000 kPa | 0.000624 | 0.000635 | 0.000646 | 0.000658
300000 kPa | 0.000617 | 0.000628 | 0.000639 | 0.00065
325000 kPa | 0.000611 | 0.000621 | 0.000632 | 0.000642
350000 kPa | 0.000606 | 0.000616 | 0.000625 | 0.000636
375000 kPa | 0.0006 | 0.00061 | 0.000619 | 0.000629
400000 kPa | 0.000596 | 0.000605 | 0.000614 | 0.000623
425000 kPa | 0.000591 | 0.0006 | 0.000608 | 0.000617
450000 kPa | 0.000587 | 0.000595 | 0.000603 | 0.000612
475000 kPa | 0.000582 | 0.00059 | 0.000598 | 0.000606
500000 kPa | 0.000579 | 0.000586 | 0.000594 | 0.000602
